The numbers were not newly measured in patent publication US9198974B2, “Decorated macromolecular scaffolds” (Mintaka Foundation for Medical Research, priority 2011, dated 2015), which cites them from elsewhere.

The pKa is the negative logarithm of the acid dissociation constant.

For the first series the following is noted: meta-substituted aniline; listed as gives the substituent.
`Nc1cccc(S(=O)(=O)O)c1` [m-O3S—]: the “pKa, m-” value is on record as 3.32.

For `Nc1cccc(-c2ccccc2)c1` [m-C6H5—], the “pKa, m-” value is 4.18.

In the case of `Cc1cccc(N)c1` [m-CH3—], the “pKa, m-” value is recorded as 4.67.

As for `CCOC(=O)c1cccc(N)c1` [m-C2H5O2C—], the “pKa, m-” value is 2.38.

`COc1cccc(N)c1` [m-CH3O—]: the “pKa, m-” value is reported as 4.20.

On to `Nc1cccc(Br)c1` [m-Br—], for which the “pKa, m-” value is 3.51.

With `Nc1cccc(C(F)(F)F)c1` [m-F3C—], the “pKa, m-” value was 2.57.

With `Nc1cccc(C(=O)O)c1` [m-HO2C—], the “pKa, m-” value was 3.05.

Regarding `Nc1cccc(Cl)c1` [m-Cl—], the “pKa, m-” value was 3.32.

As to `CSc1cccc(N)c1` [m-CH3S—], the “pKa, m-” value was 4.40.

For `Nc1cccc(O)c1` [m-HO—], the “pKa, m-” value is on record as 4.17.

On to `Nc1cccc(N)c1` [m-H2N—], for which the “pKa, m-” value is 4.88.

`COC(=O)c1cccc(N)c1` [m-CH3O2C—]: the “pKa, m-” value is 3.56.

Turning to `Nc1cccc(F)c1` [m-F—], the “pKa, m-” value is given as 3.38.

As to `Nc1cccc([N+](=O)[O-])c1` [m-O2N—], the “pKa, m-” value is 2.45.

Turning to `CCOc1cccc(N)c1` [m-C2H5O—], the “pKa, m-” value is given as 4.17.

Staying with this series, now noted: ortho-substituted aniline; listed as gives the substituent.
In the case of `CCOc1ccccc1N` [o-C2H5O—], the “pKa, o-” value is reported as 4.47.

As to `COC(=O)c1ccccc1N` [o-CH3O2C—], the “pKa, o-” value was 2.16.

On to `Nc1ccccc1F` [o-F—], for which the “pKa, o-” value is listed as 2.96.

`Nc1ccccc1[N+](=O)[O-]` [o-O2N—]: the “pKa, o-” value is recorded as −0.28.

In the case of `Nc1ccccc1O` [o-HO—], the “pKa, o-” value is recorded as 4.72.

As to `Nc1ccccc1S(=O)(=O)O` [o-O3S—], the “pKa, o-” value is given as 3.80.

`COc1ccccc1N` [o-CH3O—]: the “pKa, o-” value is reported as 4.49.

`CSc1ccccc1N` [o-CH3S—]: the “pKa, o-” value is recorded as 4.05.

Turning to `Nc1ccccc1Br` [o-Br—], the “pKa, o-” value is listed as 2.6.

In the case of `Nc1ccccc1Cl` [o-Cl—], the “pKa, o-” value is 2.62.

`Nc1ccccc1N` [o-H2N—]: the “pKa, o-” value is on record as 4.47.

With `Nc1ccccc1C(F)(F)F` [o-F3C—], the “pKa, o-” value is on record as 3.49.

For `Cc1ccccc1N` [o-CH3—], the “pKa, o-” value is reported as 4.38.

Regarding `Nc1ccccc1-c1ccccc1` [o-C6H5—], the “pKa, o-” value is 3.78.

As to `CCOC(=O)c1ccccc1N` [o-C2H5O2C—], the “pKa, o-” value was 2.10.

Turning to `CC(C)(C)c1ccccc1N` [o-(CH3)3C—], the “pKa, o-” value is recorded as 3.78.

Take `Nc1ccccc1C(=O)O` [o-HO2C—]: the “pKa, o-” value was 2.04.

The same series, now with this note: preferred aniline catalysts.
Regarding `CCOc1ccc(N)cc1` [p-C2H5O—, 4-ethoxy aniline], the pKa was 5.2.
